Laboratory results as given in patent US20260174783A1, “HALOBETASOL PROPIONATE-LIDOCAINE FORMULATIONS” (priority 2023, published 2026).

Test: In vitro permeation test: delivery of Halobetasol Propionate to the skin
Type: in vitro ADME
Details: Formulations 1 and 2
Source text: The ability of the formulations of the present invention to deliver the APIs to their active sites was investigated by in vitro permeation tests.

Halobetasol Propionate receiver media concentration: no receiver media concentration
SMILES: CCC(=O)O[C@]1(C(=O)CCl)[C@@H](C)C[C@H]2[C@@H]3C[C@H](F)C4=CC(=O)C=C[C@]4(C)[C@@]3(F)[C@@H](O)C[C@@]21C [Halobetasol Propionate, (6α, 11β, 16β)-21-Chloro-6,9-difluoro-11-hydroxy-16-methyl-17-(1-oxopropoxy) pregna-1,4-diene-3,20-dione]
